Entries after “also recorded” stand apart in the source; their conditions may differ. Read-outs that look alike come from different tables or passages of the source.
What was measured:
Nrf2-Keap1 complex = Nrf2-Keap1 complex (Homo sapiens, UniProt Q14145); test: cell-based; assay type: cell-based; conditions: for activation at 16 µM / activation at 32 µM: 3 h; for activation at 16 µM: read-out: Activation 100 nL; for activation at 32 µM: read-out: Activation 200 nL; for 100 nL (luminescence) / 200 nL (luminescence): Table 2, screen run at 16 and 32 μM, 3 hr; for 100 nL (luminescence): 100 nL compound; for 200 nL (luminescence): 200 nL compound
[1] = tested on: Neh2-luciferase fusion protein in SH-SY5Y cells; assay type: cell-based, human
Experimental: Cells were plated at the density of 25,000 cell per well using a WellMate multichannel dispenser from Matrix (Thermo Fisher Scientific) and grown overnight on DMEM/F12+GlutaMAX (100 μl per well). Then the inhibitor was added, and the plates were incubated for a fixed time interval; the medium was removed, cells lysed in 20 μL (out of which 4 μL were taken for protein measurement), then BrightGlo™ reagent (Promega) was added to the wells and luciferase activity measured on a luminometer Lmax11384 (Molecular Devices). The reporter activation was normalized to the background luminescence divided by protein concentration. Kinetics of reporter activation were measured by adding varied fixed concentrations of an inhibitor at different time points followed by simultaneous cell lysis, protein determination, and luciferase activity measurement in the whole 96-well plate; this assay format minimizes experimental error originating from the well-known instability of luciferase reagent.

FLAG-Keap1 = biological target: T1, FLAG-Keap1 (Homo sapiens, UniProt Q14145); assay type: cell-based; conditions: 200 μM competing compound, HEK293 cells, then 10 μM STCA 30 min
T1 construct: expressed in transfected cells; host or cells: HEK293 (transient expression)
Experimental: FIG. 12. Supporting to FIG. 5. […] A: structural formulas of the compounds used; B: competition with Keap1 labeling. HEK293 cells transiently expressing FLAG-Keap1 were incubated with 200 μM competing compounds (sulforaphane, fisetin, quercetin, gedunin, TBHQ, ciclopirox, geldanamycin) and then further incubated with 10 μM sulfoxythiocarbate-alkyne (STCA) for 30 min at 37° C. FLAG-Keap1 was immunoprecipitated from cell lysates, subjected to click reaction with biotin azide on beads, and eluted with SDS-loading buffer. […] All values are presented as mean±SEM.
Keap1 labeling experiments were performed as described previously (AHN et al., Proc. Natl. […]. USA., 107: 9590-9595 (2010)) with following modifications. HEK293 cells transiently expressing FLAG-Keap1 were incubated with 200 μM competing compounds (sulforaphane, fisetin, quercetin, gedunin, TBHQ, ciclopirox, geldanamycin) in serum-free DMEM for 1 h. After washing with PBS, cells were further incubated with 10 μM sulfoxythiocarbate-alkyne (STCA) for 30 min at 37° C. FLAG-Keap1 was immunoprecipitated from cell lysates, subjected to click reaction with biotin azide on beads, and eluted with SDS-loading buffer. Eluted samples were immunoblotted with Streptavidin-HRP (Pierce) and anti-FLAG antibodies (Sigma).

primary immature neurons = test: Astrocyte-dependent neuroprotection in astrocyte-neuron coculture with HCA; assay type: cell-based, rat; conditions: astrocytes pretreated 24 hr, neurons plated with HCA
astrocytes = test: Intracellular GSH levels in astrocytes; assay type: cell-based, rat
Immature neurons [2] = test: Neuronal viability of isolated immature neurons treated with compounds; conditions: 24 hours
ARE-luc reporter = ARE-luc reporter time-course; assay type: cell-based, human
Experimental: Human neuroblastoma SH-SY5Y cells were transfected with 1 mg of pcDNA3-Neh2LUC10, pcDNA3-ODDLUC8, pcDNA3-LUC3, and ARE-LUC/pcDNA3 (5:1) by using Lipofectamine—2000 (Invitrogen). Transfected cells were grown in the presence of 500 mg/ml Geneticin (GIBCO-Invitrogen) on DMEM/F12+ GlitaMAX (Dulbecco's modified Eagle medium Nutrient Mixture F-12 (Ham)(1:1) 1×, GIBCO 10565) medium.

Immature neurons [3] = tested on: Immature neurons

T1 sequence (Q14145 whole entry): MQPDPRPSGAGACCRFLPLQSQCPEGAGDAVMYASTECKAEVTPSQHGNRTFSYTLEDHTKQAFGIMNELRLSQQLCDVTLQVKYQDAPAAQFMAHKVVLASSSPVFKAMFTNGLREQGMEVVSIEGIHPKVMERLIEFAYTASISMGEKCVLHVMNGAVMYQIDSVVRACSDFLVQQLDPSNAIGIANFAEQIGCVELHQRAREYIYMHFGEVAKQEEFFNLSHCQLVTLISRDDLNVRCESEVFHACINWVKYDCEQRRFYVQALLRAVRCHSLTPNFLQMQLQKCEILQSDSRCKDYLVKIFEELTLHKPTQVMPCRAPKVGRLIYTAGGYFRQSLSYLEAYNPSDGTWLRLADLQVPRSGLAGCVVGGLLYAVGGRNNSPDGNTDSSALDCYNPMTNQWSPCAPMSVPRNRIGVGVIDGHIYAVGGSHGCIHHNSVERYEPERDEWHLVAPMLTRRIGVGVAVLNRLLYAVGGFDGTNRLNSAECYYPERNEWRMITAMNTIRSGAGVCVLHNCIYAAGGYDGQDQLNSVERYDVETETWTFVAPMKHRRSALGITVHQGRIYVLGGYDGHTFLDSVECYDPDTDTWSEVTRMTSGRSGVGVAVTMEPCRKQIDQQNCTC
Nrf2-Keap1 complex, sequence (Q14145 whole entry, the tested form may be a part, one chain of several): as the sequence (Q14145 whole entry) above

| Compound | activation at 16 µM (Nrf2-Keap1 complex) | activation at 32 µM (Nrf2-Keap1 complex) | 100 nL (luminescence) (Nrf2-Keap1 complex) | 200 nL (luminescence) (Nrf2-Keap1 complex) | type of reporter activation by time-course [1] | competition with Keap1 labeling by STCA (FLAG-Keap1) | astrocyte-dependent neuroprotection (primary immature neurons) | GSH in astrocytes (astrocytes) | toxicity in isolated neurons (Immature neurons [2]) | activation of Neh2-luc reporter ([1]; positive control, FIG. 1B) | delay of ARE-luc reporter response (ARE-luc reporter) | toxicity in isolated neurons (Immature neurons [3]) | GSH in astrocytes (astrocytes; 24 hr, 10 μM NDGA, 24 μM gedunin, 20 μM fisetin) |
| --- | --- | --- | --- | --- | --- | --- | --- | --- | --- | --- | --- | --- | --- |
| CC(=O)O[C@@H]1C[C@H]2C(C)(C)C(=O)C=C[C@]2(C)[C@H]2CC[C@@]3(C)[C@H](c4ccoc4)OC(=O)[C@H]4O[C@]43[C@@]21C [GEDUNIN] | 222% | 184% | 4812 | 3708 | immediate activation but gradual stabilization over time; also recorded: immediate effect | very modest competition; also recorded: poorly compete with Keap1 labeling | induced significant neuroprotection | clearly show a boost in GSH | did not induce toxicity in isolated neurons | – | – | – | – |
| CC(C)(C)c1cc(O)ccc1O [TBHQ, tert-butylhydroquinone, reference compound] | – | – | – | – | immediate activation but gradual stabilization over time | very modest competition; also recorded: competes very poorly | – | – | – | more than 10 fold | 3 h | neurotoxic effects | – |
| O=c1c(O)c(-c2ccc(O)c(O)c2)oc2cc(O)ccc12 [FISETIN] | 224% | 38% | 3360 | 1320 | activation via a switch or receptor | very modest competition; also recorded: poorly compete with Keap1 labeling | induced significant neuroprotection | does not show the same level of enhancement | did not induce toxicity in isolated neurons | – | – | – | – |
| CC(Cc1ccc(O)c(O)c1)C(C)Cc1ccc(O)c(O)c1 (stereo not shown) [NDGA, nordihydroguaiaretic acid] | – | – | – | – | activation via a switch or receptor | poorly compete with Keap1 labeling | induced significant neuroprotection | – | – | – | – | did not induce toxicity in isolated neurons | clearly show a boost in GSH |

— patent publication US9200046B2, “Reporter system for high throughput screening of compounds and uses thereof” (priority 2011, dated 2015)
